Converted amounts (≈) assume the structure as drawn.
Assays:
[1] = target: C-C chemokine receptor type 2 (Homo sapiens, UniProt P41597); assay: Displacement of [125I]-MCP1 from human CCR2 receptor in THP1 cells after 2 hrs by scintillation counting; format: cell-based, THP-1
[2] = target: Voltage-gated inwardly rectifying potassium channel KCNH2 (Homo sapiens, UniProt Q12809)
Description: Displacement of [3H]-astemizole from human ERG in HEK293 cells after 1 hrs by scintillation counting

[3] = Kinetic solubility of the compound at pH 2; format: physicochemical; conditions: buffer, read-out: Kinetic_solubility
[4] = Apparent permeability of the compound from apical to basolateral side in human Caco2 cell membrane; format: ADME, cell-based; conditions: Caco-2
[5] = Apparent permeability of the compound from basolateral to apical side in human Caco2 cell membrane; format: ADME, cell-based; conditions: Caco-2
[6] = Efflux ratio of permeability from basolateral to apical side over apical to basolateral side in human Caco2 cell membrane; format: ADME, cell-based; conditions: Caco-2
hERG (KCNH2) = hERG (KCNH2) (Homo sapiens, UniProt Q12809); assay: in vitro; conditions: HEK293 cells that express hERG
Chain of hERG (KCNH2) (Q12809 whole entry): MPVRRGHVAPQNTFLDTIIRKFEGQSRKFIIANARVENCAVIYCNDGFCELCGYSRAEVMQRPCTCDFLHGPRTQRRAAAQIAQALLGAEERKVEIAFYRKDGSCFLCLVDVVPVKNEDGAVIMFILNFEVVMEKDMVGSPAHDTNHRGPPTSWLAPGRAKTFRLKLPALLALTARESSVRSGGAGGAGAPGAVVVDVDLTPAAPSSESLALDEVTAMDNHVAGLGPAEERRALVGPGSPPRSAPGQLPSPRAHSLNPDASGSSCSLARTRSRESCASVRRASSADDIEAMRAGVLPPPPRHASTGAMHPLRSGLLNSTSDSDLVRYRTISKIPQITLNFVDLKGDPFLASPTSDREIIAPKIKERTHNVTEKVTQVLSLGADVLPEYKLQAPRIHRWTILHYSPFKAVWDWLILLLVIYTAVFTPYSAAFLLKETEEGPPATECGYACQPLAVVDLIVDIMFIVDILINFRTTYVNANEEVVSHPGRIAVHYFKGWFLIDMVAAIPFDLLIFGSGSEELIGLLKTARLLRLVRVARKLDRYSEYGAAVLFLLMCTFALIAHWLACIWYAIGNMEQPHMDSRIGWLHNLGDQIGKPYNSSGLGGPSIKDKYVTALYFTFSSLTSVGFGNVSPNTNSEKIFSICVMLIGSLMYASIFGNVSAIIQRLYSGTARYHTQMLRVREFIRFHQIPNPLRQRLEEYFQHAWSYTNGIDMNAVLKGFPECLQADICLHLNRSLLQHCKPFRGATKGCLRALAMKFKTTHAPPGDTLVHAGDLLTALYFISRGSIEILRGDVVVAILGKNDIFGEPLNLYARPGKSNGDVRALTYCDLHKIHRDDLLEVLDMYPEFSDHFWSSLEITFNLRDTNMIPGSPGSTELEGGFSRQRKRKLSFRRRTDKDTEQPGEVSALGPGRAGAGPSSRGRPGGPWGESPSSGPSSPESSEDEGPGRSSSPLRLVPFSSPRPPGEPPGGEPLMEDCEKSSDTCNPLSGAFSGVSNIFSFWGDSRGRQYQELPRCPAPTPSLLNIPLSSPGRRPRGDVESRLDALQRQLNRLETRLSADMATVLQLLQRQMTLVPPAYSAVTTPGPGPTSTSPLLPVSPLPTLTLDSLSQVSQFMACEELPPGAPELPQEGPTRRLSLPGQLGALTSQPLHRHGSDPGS

Chain of C-C chemokine receptor type 2 (P41597 whole entry): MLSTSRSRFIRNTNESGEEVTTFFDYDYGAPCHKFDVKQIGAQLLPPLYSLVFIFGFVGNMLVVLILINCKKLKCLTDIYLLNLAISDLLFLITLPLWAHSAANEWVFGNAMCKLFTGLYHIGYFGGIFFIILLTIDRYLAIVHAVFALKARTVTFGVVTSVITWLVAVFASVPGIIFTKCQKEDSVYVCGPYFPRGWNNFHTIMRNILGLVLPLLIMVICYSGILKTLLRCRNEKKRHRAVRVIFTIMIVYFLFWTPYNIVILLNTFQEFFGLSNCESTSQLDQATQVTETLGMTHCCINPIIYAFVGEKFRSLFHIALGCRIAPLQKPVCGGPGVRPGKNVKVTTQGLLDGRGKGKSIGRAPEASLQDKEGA
Chain of Voltage-gated inwardly rectifying potassium channel KCNH2 (Q12809 whole entry): as the sequence (Q12809 whole entry) above

SMILES | IC50 [1] | IC50 [2] | other results
C#C[C@H]1CC[C@@H](N2CC(NC(=O)CNc3nn(C)c4ccc(C(F)(F)F)cc34)C2)CC1 | 10000 nM | > 50000 nM | 
O=C(Cn1[nH]c2ccc(C(F)(F)F)cc2c1=O)NC1CN([C@H]2CC[C@@H](c3ccccc3)CC2)C1 | 5400 nM |  | 
O=C(CSc1n[nH]c2ccc(C(F)(F)F)cc12)NC1CN([C@H]2CC[C@@H](c3ccccc3)CC2)C1 | 290 nM |  | 
O=C(COc1n[nH]c2ccc(C(F)(F)F)cc12)NC1CN([C@H]2CC[C@@H](c3ccccc3)CC2)C1 | 510 nM |  | 
O=C(CNc1n[nH]c2ccc(C(F)(F)F)cc12)NC1CN([C@H]2CC[C@@H](c3ccc4c(c3)OCO4)CC2)C1 | 6 nM |  | 
NC(=O)Cc1ccc([C@H]2CC[C@@H](N3CC(NC(=O)CNc4n[nH]c5ccc(C(F)(F)F)cc45)C3)CC2)cc1 | 12 nM | 9500 nM | 
Cn1nc(NCC(=O)NC2CN([C@H]3CC[C@@H](c4ccc5c(c4)OCO5)CC3)C2)c2cc(C(F)(F)F)ccc21 | 13 nM |  | 
O=C(CNc1n[nH]c2ccc(C(F)(F)F)cc12)NC1CN([C@H]2CC[C@@H](n3ccccc3=O)CC2)C1 | 63 nM |  | 
CC(C)[C@H]1CC[C@@H](N2CC(NC(=O)CNc3n[nH]c4ccc(C(F)(F)F)cc34)C2)CC1 | 370 nM | 6200 nM | 
Cn1nc(NCC(=O)NC2CN([C@H]3CC[C@@H](C#N)CC3)C2)c2cc(C(F)(F)F)ccc21 | 330 nM |  | 
Cn1nc(NCC(=O)NC2CN([C@H]3CC[C@@H](C4CCCCC4)CC3)C2)c2cc(C(F)(F)F)ccc21 | 120 nM |  | 
CCOC(=O)[C@H]1CC[C@@H](N2CC(NC(=O)CNc3nn(C)c4ccc(C(F)(F)F)cc34)C2)CC1 | 13 nM | 8000 nM | 
Cn1nc(NCC(=O)NC2CN([C@H]3CC[C@@H](C(=O)O)CC3)C2)c2cc(C(F)(F)F)ccc21 | 2600 nM | 25000 nM | 
Cn1nc(NCC(=O)NC2CN([C@H]3CC[C@@H](C(N)=O)CC3)C2)c2cc(C(F)(F)F)ccc21 | 510 nM | 32000 nM | 
Cn1nc(NCC(=O)NC2CN([C@H]3CC[C@@H](CO)CC3)C2)c2cc(C(F)(F)F)ccc21 | 44 nM |  | 
CCOC[C@H]1CC[C@@H](N2CC(NC(=O)CNc3nn(C)c4ccc(C(F)(F)F)cc34)C2)CC1 | 27 nM | 5600 nM | 
O=C(CNc1n[nH]c2ccc(C(F)(F)F)cc12)NC1CN([C@H]2CC[C@@H](O)CC2)C1 | 530 nM | 30000 nM | 
N[C@H]1CC[C@@H](N2CC(NC(=O)CNc3n[nH]c4ccc(C(F)(F)F)cc34)C2)CC1 | > 25000 nM | > 50000 nM | 

SMILES | IC50 [1] | IC50 [2] | other results
CS(=O)(=O)N[C@H]1CC[C@@H](N2CC(NC(=O)CNc3n[nH]c4ccc(C(F)(F)F)cc34)C2)CC1 | 2080 nM |  | 
O=C(CNc1noc2ccc(C(F)(F)F)cc12)NC1CN([C@H]2CC[C@@H](c3ccc4c(c3)OCO4)CC2)C1 | 36 nM | 1900 nM | 
CC(C)(C)NC(=O)n1nc(NCC(=O)NC2CN([C@H]3CC[C@@H](c4ccc5c(c4)OCO5)CC3)C2)c2cc(C(F)(F)F)ccc21 | 55 nM |  | 
NC(=O)n1nc(NCC(=O)NC2CN([C@H]3CC[C@@H](c4ccc5c(c4)OCO5)CC3)C2)c2cc(C(F)(F)F)ccc21 | 82 nM | 12000 nM | solubility kinetic [3]: 3.5 µM (≈ 1.95 µg/mL); Papp A→B [4]: 0.15 ×10⁻⁶ cm/s; Papp B→A [5]: 2.44 ×10⁻⁶ cm/s; efflux ratio [6]: 16.2
CCOC(=O)[C@H]1CC[C@@H](N2CC(NC(=O)CNc3n[nH]c4ccc(C(F)(F)F)cc34)C2)CC1 | 27 nM | 9100 nM | 
CCOC(=O)[C@H]1CC[C@@H](N2CC(NC(=O)CNc3noc4ccc(C(F)(F)F)cc34)C2)CC1 | 29 nM |  | 
C=CCn1nc(NCC(=O)NC2CN([C@H]3CC[C@@H](C(=O)OCC)CC3)C2)c2cc(C(F)(F)F)ccc21 | 22 nM |  | 
CCOC(=O)[C@H]1CC[C@@H](N2CC(NC(=O)CNc3nn(CC(F)(F)F)c4ccc(C(F)(F)F)cc34)C2)CC1 | 230 nM | 2500 nM | 
CCOC(=O)[C@H]1CC[C@@H](N2CC(NC(=O)CNc3nn(C(N)=O)c4ccc(C(F)(F)F)cc34)C2)CC1 | 56 nM | 20000 nM | solubility kinetic [3]: 8.9 µM (≈ 4.54 µg/mL); Papp A→B [4]: 0.32 ×10⁻⁶ cm/s; Papp B→A [5]: 3.5 ×10⁻⁶ cm/s; efflux ratio [6]: 10.9
CCOC(=O)[C@H]1CC[C@@H](N2CC(NC(=O)CNc3nn(S(C)(=O)=O)c4ccc(C(F)(F)F)cc34)C2)CC1 | 920 nM | 25000 nM | 
CCOC(=O)[C@H]1CC[C@@H](N2CC(NC(=O)CNc3nn(C4CCCC4)c4ccc(C(F)(F)F)cc34)C2)CC1 | 650 nM | 4100 nM | 
Cc1ccc([C@H]2CC[C@@H](N3CC(NC(=O)CNc4n[nH]c5ccc(C(F)(F)F)cc45)C3)CC2)cn1 | 6 nM | 27000 nM | inhibition at 5 min, 3 µM (hERG (KCNH2)): 23%
O=C(CNc1nn(CCO)c2ccc(C(F)(F)F)cc12)NC1CN([C@H]2CC[C@@H](c3nccs3)CC2)C1 | 29 nM |  | 
Cn1nc(NCC(=O)NC2CN([C@H]3CC[C@@H](c4ncco4)CC3)C2)c2cc(C(F)(F)F)ccc21 | 480 nM |  | 
COc1ccc([C@]2(O)CC[C@H](N3CC(NC(=O)CNc4n[nH]c5ccc(C(F)(F)F)cc45)C3)CC2)cn1 | 16 nM | 32000 nM | inhibition at 5 min, 3 µM (hERG (KCNH2)): 30%
O=C(CNc1n[nH]c2ccc(C(F)(F)F)cc12)NC1CN([C@H]2CC[C@@H](c3ccccc3)CC2)C1 (stereo in doubt; 5) |  |  | IC50 ([1]; thp-1): 12 nM
O=C(CNc1n[nH]c2ccc(C(F)(F)F)cc12)NC1CN([C@H]2CC[C@@H](c3ccccc3)CC2)C1 (stereo in doubt; 13a) | 12 nM | 1200 nM | 
